# Columns and labels:
# [1] = The compound was evaluated for enhancement of topoisomerase I mediated DNA cleavage of supercoiled DNA; 2-5; format: functional
# 833K = assay: Tested in vitro for growth inhibitory activity against 833K (human teratorcarcinoma) cells; format: functional, cell-based
# DC3F [2] = assay: Tested in vitro for growth inhibitory activity against DC-3F (hamster lung) cells; format: functional, cell-based; settings: Cricetulus griseus
# [3] = The compound was evaluated for inhibition of topoisomerase I mediated DNA relaxation of supercoiled DNA; 5-20; format: functional
# HL-60 = assay: Tested in vitro for growth inhibitory activity against HL60 (human promyelocytic leukemic) cells; format: functional, cell-based
# [4] = The compound was evaluated for enhancement of topoisomerase I mediated DNA cleavage of supercoiled DNA; 1-2; format: functional
# [5] = The compound was evaluated for inhibition of topoisomerase I mediated DNA relaxation of supercoiled DNA; 1-2; format: functional
# [6] = The compound was evaluated for enhancement of topoisomerase I mediated DNA cleavage of supercoiled DNA; 0.1-1; format: functional
# [7] = The compound was evaluated for inhibition of topoisomerase I mediated DNA relaxation of supercoiled DNA; 0.1-1; format: functional
# [8] = The compound was evaluated for inhibition of topoisomerase I mediated DNA relaxation of supercoiled DNA; format: functional
# DC3F [9] = assay: The compound was tested in vitro for growth inhibitory activity against DC-3F (hamster lung) cells; Inactive; format: functional, cell-based, Cricetulus griseus
Compound,Enhancement [1],IC50 (833K),IC50 (DC3F [2]),Inhibition [3],IC50 (HL-60),Enhancement [4],Inhibition [5],Enhancement [6],Inhibition [7],Inhibition [8],IC50 (DC3F [9])
CC[C@@]1(O)C(=O)OCc2c1cc1n(c2=O)Cc2c-1nc1ccccc1c2[Si](c1ccccc1)(c1ccccc1)C(C)(C)C,2 µM,243 nM,663 nM,5 µM,339 nM,–,–,–,–,–,–
CCC(=O)OCc1c([C@@](O)(CC)C(=O)NCCN(C)C)cc2n(c1=O)Cc1c-2nc2ccc(O)cc2c1[Si](C)(C)C,–,15 nM,14.2 nM,5 µM,9.7 nM,1 µM,–,–,–,–,–
CC[C@@]1(O)C(=O)OCc2c1cc1n(c2=O)Cc2cc3ccccc3nc2-1 [CAMPTOTHECIN],–,10 nM,6 nM,–,5 nM,1 µM,1 µM,–,–,–,–
CC[C@@]1(O)C(=O)OCc2c1cc1n(c2=O)Cc2c-1nc1ccccc1c2[Si](C)(C)C(C)(C)C,–,1.2 nM,2.9 nM,–,0.12 nM,–,–,0.1 µM,1 µM,–,–
CC[C@@]1(O)C(=O)OCc2c1cc1n(c2=O)Cc2c-1nc1cccc(F)c1c2[Si](C)(C)C,–,2.9 nM,8.2 nM,–,3 nM,–,–,0.1 µM,0.1 µM,–,–
CC[C@@]1(O)C(=O)OCc2c1cc1n(c2=O)Cc2c-1nc1cc(N)ccc1c2[Si](C)(C)C,–,7.4 nM,6.4 nM,–,2.6 nM,–,–,–,–,–,–
CC[C@@]1(O)C(=O)OCc2c1cc1n(c2=O)Cc2c-1nc1ccccc1c2[Si](C)(C)C,–,5.6 nM,4.2 nM,–,3.8 nM,–,–,0.1 µM,1 µM,–,–
CCc1c2c(nc3ccc(N4CCCC4N4CCCC4OC(N)=O)cc13)-c1cc3c(c(=O)n1C2)COC(=O)[C@]3(O)CC (stereo not given in full),–,487 nM,372 nM,–,270 nM,–,–,–,–,–,–
CC[C@@]1(O)C(=O)OCc2c1cc1n(c2=O)Cc2c-1nc1ccc(O)cc1c2[Si](C)(C)C,–,7 nM,6.9 nM,–,2.6 nM,–,–,0.1 µM,–,< 0.1 µM,–
CC[C@@]1(O)C(=O)OCc2c1cc1n(c2=O)Cc2c-1nc1ccc(CCc3ccc4nc5c(c([Si](C)(C)C)c4c3)Cn3c-5cc4c(c3=O)COC(=O)[C@]4(O)CC)cc1c2[Si](C)(C)C,–,84 nM,–,–,53 nM,–,–,–,–,> 20 µM,Not Active
CC[C@@]1(O)C(=O)OCc2c1cc1n(c2=O)Cc2c-1nc1ccc(N3CCCC3N3CCCC3OC(N)=O)cc1c2[Si](C)(C)C (stereo not given in full),–,214 nM,256 nM,–,66 nM,–,–,–,–,–,–
CC[C@@]1(O)C(=O)OCc2c1cc1n(c2=O)Cc2c-1nc1ccc(OC(C)=O)cc1c2[Si](C)(C)C,–,–,6.7 nM,–,2.7 nM,–,–,0.1 µM,–,< 0.1 µM,–
CC[C@@]1(O)C(=O)OCc2c1cc1n(c2=O)Cc2c-1nc1c(F)c(F)ccc1c2[Si](C)(C)C,–,2.1 nM,2.5 nM,–,1.01 nM,1 µM,1 µM,–,–,–,–
CC[C@@]1(O)C(=O)OCc2c1cc1n(c2=O)Cc2c-1nc1ccc(N)cc1c2[Si](C)(C)C,–,5.7 nM,0.72 nM,–,0.52 nM,–,–,–,–,–,–
CC[C@@]1(O)C(=O)OCc2c1cc1n(c2=O)Cc2c-1nc1cc(F)ccc1c2[Si](C)(C)C,–,0.92 nM,2 nM,–,0.75 nM,–,–,0.1 µM,–,< 0.1 µM,–
CC[C@@]1(O)C(=O)OCc2c1cc1n(c2=O)Cc2c-1nc1cc(F)c(N)cc1c2[Si](C)(C)C,–,0.14 nM,0.29 nM,–,0.07 nM,–,–,0.1 µM,0.1 µM,–,–

# From ChEMBL document CHEMBL1159184, “7-Silylcamptothecins (silatecans): A new family of camptothecin antitumor agents” (Bioorg Med Chem Lett, 1997)
